The text below walks through data of patent US20140120083A1, “TREATMENT OF CANCERS USING PI3 KINASE ISOFORM MODULATORS” (INFINITY PHARMACEUTICALS, INC., priority 2012, published 2014).

Bounds are passed on as bounds.

Holding throughout (assay type): biochemical
Experiment [1] addresses T1, PI3K γ (Homo sapiens, UniProt P48736).
T1 construct: purchased Sigma
Briefly: In vitro IC50, PI3K γ. From the text: (§1) An exemplary system is PI 3-Kinase (human) HTRF™ Assay from Upstate.

Experiment [2] concerns the target T2, PI3K α (Homo sapiens, UniProt P42336).
T2 construct: purchased Upstate
Kind of experiment: In vitro IC50, PI3K α.
Text: as §1

The target of experiment [3] is PI3K β (Homo sapiens, UniProt P42338). Kind of experiment: In vitro IC50, PI3K β.
Sequence of PI3K β (P42338 whole entry): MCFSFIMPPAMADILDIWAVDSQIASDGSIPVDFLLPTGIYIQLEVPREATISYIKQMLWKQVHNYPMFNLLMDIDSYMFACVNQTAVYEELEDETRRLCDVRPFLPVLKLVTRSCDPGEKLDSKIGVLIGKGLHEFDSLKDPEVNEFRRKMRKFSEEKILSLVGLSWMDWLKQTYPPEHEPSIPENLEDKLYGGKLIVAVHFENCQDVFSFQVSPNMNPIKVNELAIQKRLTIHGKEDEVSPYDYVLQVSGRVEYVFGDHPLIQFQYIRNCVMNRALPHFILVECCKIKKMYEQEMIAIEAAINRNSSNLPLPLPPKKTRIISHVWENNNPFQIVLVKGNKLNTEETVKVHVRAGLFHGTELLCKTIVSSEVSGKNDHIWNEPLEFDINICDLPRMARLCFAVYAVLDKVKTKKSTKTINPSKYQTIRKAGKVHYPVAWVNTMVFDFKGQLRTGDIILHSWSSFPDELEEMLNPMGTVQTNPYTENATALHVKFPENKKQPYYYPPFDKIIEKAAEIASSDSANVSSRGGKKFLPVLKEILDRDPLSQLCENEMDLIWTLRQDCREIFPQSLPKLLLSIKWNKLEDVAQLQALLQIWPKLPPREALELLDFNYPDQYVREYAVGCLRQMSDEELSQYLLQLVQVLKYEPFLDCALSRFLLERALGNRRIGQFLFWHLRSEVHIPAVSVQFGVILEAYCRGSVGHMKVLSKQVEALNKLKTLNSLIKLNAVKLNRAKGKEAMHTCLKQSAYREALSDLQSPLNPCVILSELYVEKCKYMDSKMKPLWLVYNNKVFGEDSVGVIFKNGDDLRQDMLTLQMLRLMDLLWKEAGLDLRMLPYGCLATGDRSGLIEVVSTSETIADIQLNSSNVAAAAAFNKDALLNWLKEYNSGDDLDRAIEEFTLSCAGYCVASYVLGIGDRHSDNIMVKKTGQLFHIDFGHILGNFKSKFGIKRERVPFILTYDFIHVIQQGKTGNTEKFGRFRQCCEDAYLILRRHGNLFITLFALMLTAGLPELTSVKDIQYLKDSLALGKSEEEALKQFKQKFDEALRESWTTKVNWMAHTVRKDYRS
Text: as §1

The target in experiment [4] is PI3K δ (Homo sapiens, UniProt O00329). Kind of experiment: In vitro IC50, PI3K δ. On the set-up: purchased Upstate.
Sequence of PI3K δ (O00329 whole entry): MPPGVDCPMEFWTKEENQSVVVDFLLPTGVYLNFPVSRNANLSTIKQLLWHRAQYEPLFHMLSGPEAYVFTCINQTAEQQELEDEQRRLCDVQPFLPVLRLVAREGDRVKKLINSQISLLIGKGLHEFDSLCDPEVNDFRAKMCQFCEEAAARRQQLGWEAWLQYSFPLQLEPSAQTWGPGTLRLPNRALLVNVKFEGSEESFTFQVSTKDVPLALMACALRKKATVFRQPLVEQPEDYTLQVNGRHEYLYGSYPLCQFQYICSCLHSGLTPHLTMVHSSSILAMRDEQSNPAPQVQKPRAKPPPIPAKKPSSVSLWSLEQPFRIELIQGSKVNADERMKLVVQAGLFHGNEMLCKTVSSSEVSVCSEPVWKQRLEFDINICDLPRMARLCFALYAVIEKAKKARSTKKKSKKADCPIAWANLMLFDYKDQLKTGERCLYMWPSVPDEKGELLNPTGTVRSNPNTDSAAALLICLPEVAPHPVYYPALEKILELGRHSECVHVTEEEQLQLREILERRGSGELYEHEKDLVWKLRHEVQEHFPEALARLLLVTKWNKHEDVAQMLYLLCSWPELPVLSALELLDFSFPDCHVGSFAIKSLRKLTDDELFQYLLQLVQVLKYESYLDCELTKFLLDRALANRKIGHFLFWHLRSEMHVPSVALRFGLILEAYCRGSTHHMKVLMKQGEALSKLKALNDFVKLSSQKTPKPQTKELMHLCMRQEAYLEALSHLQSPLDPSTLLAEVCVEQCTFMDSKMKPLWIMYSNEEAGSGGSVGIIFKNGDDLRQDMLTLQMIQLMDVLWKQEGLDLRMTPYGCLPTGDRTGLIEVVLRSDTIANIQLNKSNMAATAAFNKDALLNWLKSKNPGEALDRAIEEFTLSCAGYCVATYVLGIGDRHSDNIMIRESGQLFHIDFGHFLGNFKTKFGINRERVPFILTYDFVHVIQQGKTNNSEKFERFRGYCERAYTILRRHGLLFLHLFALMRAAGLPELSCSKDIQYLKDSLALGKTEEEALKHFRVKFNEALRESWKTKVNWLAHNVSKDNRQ
Sequence of PI3K δ (P27986 whole entry partner): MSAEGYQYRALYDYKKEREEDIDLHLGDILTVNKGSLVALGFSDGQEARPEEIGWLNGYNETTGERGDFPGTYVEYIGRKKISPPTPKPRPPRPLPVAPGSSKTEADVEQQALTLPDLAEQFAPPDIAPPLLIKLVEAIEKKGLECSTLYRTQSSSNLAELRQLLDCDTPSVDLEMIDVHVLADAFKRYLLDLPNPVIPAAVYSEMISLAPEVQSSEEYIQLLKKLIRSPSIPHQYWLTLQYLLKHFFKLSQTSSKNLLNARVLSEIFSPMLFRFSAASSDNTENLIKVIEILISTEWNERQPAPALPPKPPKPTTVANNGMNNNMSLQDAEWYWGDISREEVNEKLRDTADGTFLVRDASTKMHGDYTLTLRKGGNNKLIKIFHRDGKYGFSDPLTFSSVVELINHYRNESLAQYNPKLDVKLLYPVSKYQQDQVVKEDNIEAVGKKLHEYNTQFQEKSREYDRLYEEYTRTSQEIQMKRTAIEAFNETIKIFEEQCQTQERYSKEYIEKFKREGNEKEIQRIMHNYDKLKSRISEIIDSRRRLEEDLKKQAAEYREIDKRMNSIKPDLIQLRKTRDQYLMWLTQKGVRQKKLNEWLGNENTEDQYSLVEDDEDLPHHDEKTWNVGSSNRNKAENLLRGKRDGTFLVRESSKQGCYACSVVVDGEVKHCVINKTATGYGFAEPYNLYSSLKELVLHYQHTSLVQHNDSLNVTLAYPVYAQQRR
Text: as §1

T1 sequence (P48736 whole entry): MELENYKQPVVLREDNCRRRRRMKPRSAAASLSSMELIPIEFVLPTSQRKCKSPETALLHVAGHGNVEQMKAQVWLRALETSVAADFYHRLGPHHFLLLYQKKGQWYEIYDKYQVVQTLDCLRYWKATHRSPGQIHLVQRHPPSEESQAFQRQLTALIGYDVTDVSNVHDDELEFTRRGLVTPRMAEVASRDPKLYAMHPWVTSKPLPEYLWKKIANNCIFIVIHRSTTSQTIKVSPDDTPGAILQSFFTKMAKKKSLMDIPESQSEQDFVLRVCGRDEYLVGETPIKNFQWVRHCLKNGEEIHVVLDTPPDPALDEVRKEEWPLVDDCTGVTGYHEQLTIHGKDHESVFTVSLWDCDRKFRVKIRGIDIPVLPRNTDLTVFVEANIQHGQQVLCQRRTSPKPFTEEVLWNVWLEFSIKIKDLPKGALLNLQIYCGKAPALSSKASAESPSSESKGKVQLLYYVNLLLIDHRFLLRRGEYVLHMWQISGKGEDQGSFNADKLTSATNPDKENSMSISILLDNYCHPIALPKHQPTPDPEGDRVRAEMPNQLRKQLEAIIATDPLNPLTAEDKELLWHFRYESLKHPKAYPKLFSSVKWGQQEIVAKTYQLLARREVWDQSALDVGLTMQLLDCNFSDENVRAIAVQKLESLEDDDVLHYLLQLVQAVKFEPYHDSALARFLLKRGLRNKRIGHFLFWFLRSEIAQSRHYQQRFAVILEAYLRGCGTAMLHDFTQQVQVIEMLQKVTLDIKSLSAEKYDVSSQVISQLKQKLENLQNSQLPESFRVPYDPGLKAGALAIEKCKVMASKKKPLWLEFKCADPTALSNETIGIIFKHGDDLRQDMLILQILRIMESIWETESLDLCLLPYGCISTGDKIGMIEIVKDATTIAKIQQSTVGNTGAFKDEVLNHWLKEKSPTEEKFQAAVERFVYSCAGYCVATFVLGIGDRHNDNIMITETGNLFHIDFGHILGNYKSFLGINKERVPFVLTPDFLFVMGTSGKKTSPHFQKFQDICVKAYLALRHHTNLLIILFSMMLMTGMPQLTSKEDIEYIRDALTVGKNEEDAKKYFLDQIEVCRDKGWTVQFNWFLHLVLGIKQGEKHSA
T2 sequence (P42336 whole entry): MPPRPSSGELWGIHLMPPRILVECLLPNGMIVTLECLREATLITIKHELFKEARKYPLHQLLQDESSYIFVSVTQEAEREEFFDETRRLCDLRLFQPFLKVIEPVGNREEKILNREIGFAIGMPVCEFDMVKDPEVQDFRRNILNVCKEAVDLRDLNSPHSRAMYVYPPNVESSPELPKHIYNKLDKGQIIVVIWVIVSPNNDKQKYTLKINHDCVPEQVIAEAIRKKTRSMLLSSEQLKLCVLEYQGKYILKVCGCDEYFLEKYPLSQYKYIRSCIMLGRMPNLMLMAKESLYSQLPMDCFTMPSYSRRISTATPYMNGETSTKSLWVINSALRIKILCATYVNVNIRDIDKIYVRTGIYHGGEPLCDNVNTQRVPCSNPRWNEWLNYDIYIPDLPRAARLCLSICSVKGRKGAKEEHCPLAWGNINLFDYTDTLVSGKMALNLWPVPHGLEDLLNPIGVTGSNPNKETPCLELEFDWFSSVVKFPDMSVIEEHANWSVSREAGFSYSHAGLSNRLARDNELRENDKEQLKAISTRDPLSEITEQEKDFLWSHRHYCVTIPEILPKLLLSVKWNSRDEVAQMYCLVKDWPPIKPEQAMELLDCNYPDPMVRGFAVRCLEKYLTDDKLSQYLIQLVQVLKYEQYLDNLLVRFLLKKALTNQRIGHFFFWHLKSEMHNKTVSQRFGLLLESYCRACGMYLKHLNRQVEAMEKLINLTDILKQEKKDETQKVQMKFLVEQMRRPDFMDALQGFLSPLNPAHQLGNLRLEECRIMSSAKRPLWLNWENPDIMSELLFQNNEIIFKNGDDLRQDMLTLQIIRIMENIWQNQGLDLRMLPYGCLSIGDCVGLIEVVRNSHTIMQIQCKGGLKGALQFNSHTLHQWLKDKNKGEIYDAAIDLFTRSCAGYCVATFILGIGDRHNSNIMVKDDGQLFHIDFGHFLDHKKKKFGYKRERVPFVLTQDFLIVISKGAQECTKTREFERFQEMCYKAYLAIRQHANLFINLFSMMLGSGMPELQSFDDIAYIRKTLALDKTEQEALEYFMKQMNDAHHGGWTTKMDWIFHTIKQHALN
T2 sequence (P27986 whole entry partner): as the sequence (P27986 whole entry partner) above

Regarding `CC(=O)Nc1nc2ccc(-c3nn(Cc4cc5cccc(C)c5c(=O)n4-c4ccccc4)c4ncnc(N)c34)cc2o1` [Compound 269], the IC50 (in general, the midpoint of a concentration-inhibition curve) in experiment [1] was under 1 µM; in experiment [2] it was under 10 µM; in experiment [3], under 10 µM; in experiment [4], under 1 µM.
`Cc1cccc2cc([C@H](C)Nc3ncnc4[nH]cc(F)c34)n(-c3ccccc3)c(=O)c12` [Compound 254]: the IC50 in experiment [1] is under 0.1 µM; in experiment [2] it was under 10 µM; in experiment [3], under 0.1 µM; in experiment [4], under 0.1 µM.
In the case of `Cc1cccc2cc(C(C)Nc3nc(N)nc4[nH]cnc34)n(-c3ccccc3)c(=O)c12` (stereo not drawn) [Compound 320], the IC50 is under 0.1 µM in experiment [1], under 1 µM in experiment [2], under 0.1 µM in experiment [3] and under 0.1 µM in experiment [4].
`Cc1cccc2cc(Cn3nc(C#CCO)c4c(N)ncnc43)n(-c3ccccc3F)c(=O)c12` [Compound 8]: the IC50 was under 1 µM in experiment [1], over 10 µM in experiment [2], over 10 µM in experiment [3] and under 0.1 µM in experiment [4].
Take `Cc1cccc2cc(Cn3nc(-c4ccn[nH]4)c4c(N)ncnc43)n(-c3ccccc3F)c(=O)c12` [Compound 183]: the IC50 is under 10 µM in experiment [1], over 10 µM in experiment [2], over 10 µM in experiment [3] and under 1 µM in experiment [4].
Turning to `Cc1cccc2cc(Cn3nc(-c4ccc(O)c(F)c4)c4c(N)ncnc43)n(-c3ccccc3F)c(=O)c12` [Compound 29], the IC50 is under 0.1 µM in experiment [1], over 10 µM in experiment [2], over 10 µM in experiment [3] and under 1 µM in experiment [4].
Take `Cc1ccccc1-n1c(Cn2nc(-c3ccc(O)c(Cl)c3)c3c(N)ncnc32)cc2cccc(C)c2c1=O` [Compound 25]: the IC50 is under 0.1 µM in experiment [1], over 10 µM in experiment [2], under 10 µM in experiment [3] and under 0.1 µM in experiment [4].
Consider `Cc1ccccc1-n1c(Cn2nc(CN3CCOCC3)c3c(N)ncnc32)cc2cccc(C)c2c1=O` [Compound 194], for which the IC50 was over 10 µM in experiment [1], over 10 µM in experiment [2], over 10 µM in experiment [3] and under 10 µM in experiment [4].
Regarding `Cc1cccc2cc(Cn3nc(-c4cn[nH]c4)c4c(N)ncnc43)n(-c3cccc(F)c3)c(=O)c12` [Compound 166], the IC50 was under 1 µM in experiment [1], over 10 µM in experiment [2], over 10 µM in experiment [3] and under 0.1 µM in experiment [4].
On to `Cc1cccc2cc([C@H](C)Nc3ncnc4[nH]cc(Br)c34)n(-c3ccccc3)c(=O)c12` [Compound 257], for which the IC50 was under 0.1 µM in experiment [1], under 1 µM in experiment [2], under 0.1 µM in experiment [3] and under 0.1 µM in experiment [4].
`Cc1cccnc1-n1c(Cn2nc(-c3cccc(O)c3)c3c(N)ncnc32)cc2cccc(C)c2c1=O` [Compound 73]: the IC50 was under 1 µM in experiment [1], over 10 µM in experiment [2], over 10 µM in experiment [3] and under 0.1 µM in experiment [4].
On to `C=Cc1nn(Cc2cc3cccc(C)c3c(=O)n2-c2ccccc2C)c2ncnc(N)c12` [Compound 180], for which the IC50 in experiment [1] is under 1 µM; in experiment [2] it was over 10 µM; in experiment [3] it was over 10 µM; in experiment [4], under 0.1 µM.
Turning to `Cc1cccc2cc(Cn3nc(C#C[C@@H](C)O)c4c(N)ncnc43)n(-c3ccccc3O)c(=O)c12` [Compound 91], the IC50 in experiment [1] was under 10 µM; in experiment [2], over 10 µM; in experiment [3], over 10 µM; in experiment [4], under 0.1 µM.
Regarding `Cc1ccccc1-n1c(Cn2nc(-c3ccc(F)c(O)c3)c3c(N)ncnc32)cc2ccccc2c1=O` [Compound 54], the IC50 in experiment [1] was under 0.1 µM; in experiment [2], over 10 µM; in experiment [3], over 10 µM; in experiment [4], under 0.1 µM.
Turning to `CCc1ccccc1-n1c(Cn2nc(-c3cn[nH]c3)c3c(N)ncnc32)cc2cccc(C)c2c1=O` [Compound 190], the IC50 in experiment [1] was under 0.1 µM; in experiment [2] it was under 10 µM; in experiment [3], under 10 µM; in experiment [4] it was under 0.1 µM.
Regarding `Cc1cccc2cc(Cn3nc(-c4ccc5oc(N)nc5c4)c4c(N)ncnc43)n(C3CCC3)c(=O)c12` [Compound 208], the IC50 in experiment [1] is under 0.1 µM; in experiment [2] it was under 1 µM; in experiment [3], under 1 µM; in experiment [4] it was under 0.1 µM.
Consider `Cc1cccc2cc(Cn3nc(-c4cc(O)cc(F)c4)c4c(N)ncnc43)n(-c3ccccc3OCCN3CCOCC3)c(=O)c12` [Compound 108], for which the IC50 is under 1 µM in experiment [1], under 10 µM in experiment [2], under 10 µM in experiment [3] and under 0.1 µM in experiment [4].
Take `Cc1ccccc1-n1c(Cn2nc(C#C[C@@H](C)O)c3c(N)ncnc32)cc2cccc(C)c2c1=O` [Compound 37]: the IC50 in experiment [1] was under 10 µM; in experiment [2], over 10 µM; in experiment [3] it was over 10 µM; in experiment [4] it was under 0.1 µM.
Take `Cc1cccc2cc(Cn3nc(-c4cc(O)cc(F)c4)c4c(N)ncnc43)n(-c3ccccc3)c(=O)c12` [Compound 147]: the IC50 in experiment [1] is under 0.1 µM; in experiment [2], under 1 µM; in experiment [3], under 10 µM; in experiment [4] it was under 0.1 µM.
With `CC(=O)Nc1nc2ccc(-c3nn(Cc4cc5cccc(C)c5c(=O)n4-c4ccccc4C)c4ncnc(N)c34)cc2o1` [Compound 266], the IC50 in experiment [1] is under 0.1 µM; in experiment [2], over 10 µM; in experiment [3], over 10 µM; in experiment [4] it was under 0.1 µM.
In the case of `Cc1ccccc1-n1c(Cn2nc(-c3ccc4nc(N)ncc4c3)c3c(N)ncnc32)cc2cccc(C)c2c1=O` [Compound 150], the IC50 was under 0.1 µM in experiment [1], under 0.1 µM in experiment [2], under 1 µM in experiment [3] and under 0.1 µM in experiment [4].
Regarding `Cc1cccc2cc(Cn3nc(C4=CCOCC4)c4c(N)ncnc43)n(-c3ccccc3)c(=O)c12` [Compound 315], the IC50 in experiment [1], in experiment [2], in experiment [3] and in experiment [4] was over 10 µM each time.
Turning to `Cc1ccccc1-n1c(Cn2nc(C#CC3CC3)c3c(N)ncnc32)cc2cccc(C)c2c1=O` [Compound 14], the IC50 in experiment [1] was under 1 µM; in experiment [2], over 10 µM; in experiment [3], over 10 µM; in experiment [4] it was under 1 µM.
`Cc1cccc2cc(Cn3nc(-c4cc(O)cc(F)c4)c4c(N)ncnc43)n(C3CC3)c(=O)c12` [Compound 101]: the 50% inhibitory concentration (IC50) in experiment [1] is under 0.1 µM; in experiment [2], under 1 µM; in experiment [3], under 0.1 µM; in experiment [4], under 0.1 µM.
With `Cc1cccc2cc(Cn3nc(-c4ccc(F)c(O)c4)c4c(N)ncnc43)n(C3CCCC3)c(=O)c12` [Compound 64], the IC50 in experiment [1] is under 0.1 µM; in experiment [2] it was over 10 µM; in experiment [3], over 10 µM; in experiment [4] it was under 0.1 µM.
As for `CCC(Nc1ncnc2[nH]cnc12)c1cc2ccccc2c(=O)n1-c1ccccc1` (stereo not drawn) [Compound 221], the IC50 in experiment [1] is under 10 µM; in experiment [2], over 10 µM; in experiment [3], over 10 µM; in experiment [4], under 0.1 µM.
On to `Cc1cccnc1-n1c(Cn2nc(-c3ccc(Cl)c(O)c3)c3c(N)ncnc32)cc2cccc(C)c2c1=O` [Compound 72], for which the IC50 in experiment [1] is under 0.1 µM; in experiment [2], over 10 µM; in experiment [3], under 10 µM; in experiment [4] it was under 0.1 µM.
For `CCN(Cc1cc2cccc(C)c2c(=O)n1-c1ccccc1C)c1ncnc2[nH]cnc12` [Compound 186], the IC50 in experiment [1] was under 10 µM; in experiment [2] it was over 10 µM; in experiment [3] it was over 10 µM; in experiment [4], under 10 µM.
`Cc1ccccc1-n1c(Cn2nc(C(=O)NO)c3c(N)ncnc32)cc2cccc(C)c2c1=O` [Compound 300]: the IC50 in experiment [1] was under 1 µM; in experiment [2], over 10 µM; in experiment [3] it was under 10 µM; in experiment [4], under 1 µM.
For `Cc1cccc2cc([C@H](C)Nc3ncnc4[nH]cnc34)n(-c3ccc(F)cc3)c(=O)c12` [Compound 260], the IC50 in experiment [1] was under 0.1 µM; in experiment [2] it was under 1 µM; in experiment [3], under 0.1 µM; in experiment [4] it was under 0.1 µM.
As for `CCC(Nc1ncnc2[nH]cnc12)c1cc2cccc(C)c2c(=O)n1-c1ccc(F)cc1` (stereo not drawn) [Compound 223], the IC50 is under 0.1 µM in experiment [1], under 10 µM in experiment [2], under 10 µM in experiment [3] and under 0.1 µM in experiment [4].
Regarding `Cc1cccc2cc([C@H](C)Nc3nc(N)ncc3C(N)=O)n(C3CC3)c(=O)c12` [Compound 282], the IC50 in experiment [1], in experiment [2], in experiment [3] and in experiment [4] was over 10 µM in each case.
As to `COc1ccccc1-n1c(Cn2nc(-c3cc(O)cc(F)c3)c3c(N)ncnc32)cc2cccc(C)c2c1=O` [Compound 84], the IC50 in experiment [1] was under 0.1 µM; in experiment [2] it was under 10 µM; in experiment [3], under 10 µM; in experiment [4] it was under 0.1 µM.
As for `Cc1cccc2cc(Cn3nc(-c4ccc5oc(N)nc5c4)c4c(N)ncnc43)n(-c3ccccc3)c(=O)c12` [Compound 205], the IC50 in experiment [1] was under 0.1 µM; in experiment [2], under 10 µM; in experiment [3], under 10 µM; in experiment [4], under 0.1 µM.
`Cc1ccccc1-n1c(Cn2nc(-c3ccc4nc(N)ccc4c3)c3c(N)ncnc32)cc2cccc(C)c2c1=O` [Compound 149]: the IC50 is under 0.1 µM in experiment [1], under 1 µM in experiment [2], under 10 µM in experiment [3] and under 0.1 µM in experiment [4].
As to `Cc1cccc2cc([C@H](C)Nc3ncnc4[nH]cc(C(N)=O)c34)n(C3CC3)c(=O)c12` [Compound 287], the IC50 in experiment [1] is under 0.1 µM; in experiment [2] it was under 1 µM; in experiment [3], under 0.1 µM; in experiment [4] it was under 0.1 µM.
Turning to `CC(=O)Nc1nc2ccc(-c3nn(Cc4cc5cccc(C)c5c(=O)n4-c4ccccc4C)c4ncnc(N)c34)cc2s1` [Compound 53], the IC50 in experiment [1] was under 0.1 µM; in experiment [2], under 1 µM; in experiment [3] it was under 10 µM.
